B1: His-tagged AlaA (alanine aminotransferase AlaA of Escherichia coli) (enzyme, UniProt P0A959 1-405, looked up)
chain: MSPIEKSSKLENVCYDIRGPVLKEAKRLEEEGNKVLKLNIGNPAPFGFDAPDEILVDVIRNLPTAQGYCDSKGLYSARKAIMQHYQARGMRDVTVEDIYIGNGVSELIVQAMQALLNSGDEMLVPAPDYPLWTAAVSLSSGKAVHYLCDESSDWFPDLDDIRAKITPRTRGIVIINPNNPTGAVYSKELLMEIVEIARQHNLIIFADEIYDKILYDDAEHHSIAPLAPDLLTITFNGLSKTYRVAGFRQGWMVLNGPKKHAKGYIEGLEMLASMRLCANVPAQHAIQTALGGYQSISEFITPGGRLYEQRNRAWELINDIPGVSCVKPRGALYMFPKIDAKRFNIHDDQKMVLDFLLQEKVLLVQGTAFNWPWPDHFRIVTLPRVDDIELSLSKFARFLSGYHQL
modifications: Lys240 in Schiff base linkage with pyridoxal 5'-phosphate (LLP, Lys-PLP)
notes: AlaA, alanine aminotransferase (glutamic-pyruvic transaminase), Escherichia coli, 405-amino-acid monomer; alaA amplified from E. coli XL1-Blue genomic DNA into pETM11; pETM11 adds an N-terminal hexahistidine tag and a TEV protease cleavage site; Modelled residues 1-404 (chain A) and 2-405 (chain B); also called full-length AlaA; His6-AcTev-AlaA; source: E. coli BL21(DE3), purified (HisTrap, …)

Experiments:
AlaA = target: T1, AlaA (Escherichia coli, UniProt P0A959); test: X-ray crystal structure, […] Å; assay type: binding; conditions: covalent (internal aldimine, Schiff base with Lys240); acetate from crystallisation solution also in active site; crystals in 0.25 M lithium acetate, 22% PEG 3350, 20 °C
T1 construct: full length, 405 residues, N-terminal His6-TEV tag kept (pETM11, pAlaA), expressed in E. coli BL21(DE3), homodimer about 90 kDa

[1] = target: the molecule itself; test: SEC; Superdex 200 10/300 GL after HisTrap, 4°C; elution mass estimated

Molecule | X-ray crystal structure, 2.11 Å (AlaA) | stoichiometry N [1]
Cc1ncc(COP(=O)(O)O)c(C=O)c1O [PLP] | An intact Schiff base linkage between Lys240 and PLP | 
B1 |  | 2
